For assay [1], the system named is CHO. The assay can be described thus: Preliminary [3H]adenine binding on wild-type cells. The conditions noted are these: pool 1 and pool 2. Here is the method: (§1) A) Methods—[3H]Adenine binding experiments were performed to characterize wild type cell lines before transfection as well as transiently and permanently transfected cell lines. Membranes were thawed on ice and diluted in 50 mM HEPES buffer, pH 7.4 supplemented with 10 mM MgCl2 and 1 mM EGTA. […] Both assays were carried out in a final volume of 500 μl, using 18 μg of membrane protein for the transfected CHO cells and 30 μg of membrane protein for the wild type CHO cells for the saturation binding. For competition binding experiments, 15 and 50 μg of membrane protein was used for the transfected and wild type cells, respectively. The reaction was terminated by rapid filtration through Whatman GF/B filters using a Brandel multi-channel cell harvester (96 wells). The filters were washed three times with 3 ml ice cold 50 mM HEPES buffer, pH 7.4, transferred to liquid scintillation vials and 3 ml of scintillation fluid (Ultima Gold MV, Packard, Netherlands) was added. Samples were counted in a β-scintillation counter after at least 6 hours to permit the glass fiber filters to become uniformly translucent.
(§2) The assay conditions were identical to those for the transfected cells.

Assay [2] has as its system NIH3T3. In words: Preliminary [3H]adenine binding on wild-type cells. As for the experimental part: as §1, §2
In assay [3] the test system is HEK293. In words: Preliminary [3H]adenine binding on wild-type cells. As for the experimental part:
as §1, §2

The subject of assay [4] is Cos7. The assay can be described thus: Preliminary [3H]adenine binding on wild-type cells. As for the experimental part: as §1, §2
Assay [5] has as its system C6 glioma. In words: Preliminary [3H]adenine binding on wild-type cells. As for the experimental part: as §1, §2
Assay [6] deals with T1, adenine binding rat receptor (Rattus norvegicus, UniProt Q7TN49).
T1 construct: expressed in transfected cells; host or cells: CHO cells, transient, lipofectamine PLUS
T1 sequence (Q7TN49 1-304): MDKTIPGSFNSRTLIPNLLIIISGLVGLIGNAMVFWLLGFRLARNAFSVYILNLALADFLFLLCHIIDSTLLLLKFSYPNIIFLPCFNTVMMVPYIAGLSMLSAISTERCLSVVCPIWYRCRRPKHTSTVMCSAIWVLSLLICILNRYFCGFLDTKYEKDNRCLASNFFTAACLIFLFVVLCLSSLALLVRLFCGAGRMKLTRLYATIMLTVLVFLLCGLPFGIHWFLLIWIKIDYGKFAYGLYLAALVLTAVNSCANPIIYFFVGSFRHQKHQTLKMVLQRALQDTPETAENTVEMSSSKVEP
The assay can be described thus: [3H]adenine saturation binding on CHO membranes transiently transfected. The conditions noted are these: transfected cells. Here is the method:
(§3) The membranes were prepared as total particulate fractions. The cell lines were cultured to […] on 145 mm petri dishes and treated with 5 mM sodium butyrate, 24 hours before collection. The culturing medium was removed and the cells were washed twice with ice cold phosphate buffered saline (PBS without Ca^2+ and Mg^2+), scraped from the plates in 50 mM Tris-HCl buffer, pH 7.4, and collected by centrifugation (10 minutes at 16,000 RPM at 4° C.). The cell pellet was re-suspended in hypotonic 5 mM Tris-HCl buffer, pH 7.4, and homogenized with an Ultra Turrax homogenizer (Janker Kunkel, Germany). The homogenate was centrifuged at 18,000 RPM for 20 minutes at 4° C. The final pellet was re-suspended in 50 mM Tris-HCl buffer, pH 7.4 and stored in aliquots at −70° C. A protein determination was performed using the Bradford protein assay (Biorad, Germany) using bovine serum albumin (BSA) as standard.
as §1
Addition of Gpp-NHp blocks the high-affinity or agonist binding sites of GPCRs, so that only low-affinity sites are available.

Assay [7] concerns wild type CHO cells. In words: [3H]adenine saturation binding on wild type CHO membranes. The conditions noted are these: mean n=3. Here is the method:
as §3
A) Methods—[3H]Adenine binding experiments were performed to characterize wild type cell lines before transfection as well as transiently and permanently transfected cell lines. Membranes were thawed on ice and diluted in 50 mM HEPES buffer, pH 7.4 supplemented with 10 mM MgCl2 and 1 mM EGTA. […] Samples were counted in a β-scintillation counter after at least 6 hours to permit the glass fiber filters to become uniformly translucent. […]

Molecules are shown by their SMILES. Values joined by “and” are separate entries in the source; they are usually repeats but may differ in a detail not shown here. Equal values may be shown once.

Consider `Nc1ncnc2nc[nH]c12` [[^3H]adenine], for which the “[3H]adenine binding” value in assay [1] was 303 fmoles/mg protein (pool 1) and 583 fmoles/mg protein (pool 2); in assay [2] it was 642 fmoles/mg protein; in assay [3], 168 fmoles/mg protein; in assay [4] it was 226 fmoles/mg protein; in assay [5], 839 fmoles/mg protein. In addition, the “average saturation binding levels” value in assay [6] was “around 19 pmol/mg”. In addition, the Bmax is 17341 fmoles/mg protein in assay [6] (100 μM Gpp-NHp, mean n=3); 18894 fmoles/mg protein in assay [6] (No Gpp-NHp, mean n=3); 25375 fmoles/mg protein and 17569 fmoles/mg protein and 13738 fmoles/mg protein in assay [6] (No Gpp-NHp, single experiments). For the same compound, the dissociation constant Kd (in general, the constant that tells how readily two partners part at equilibrium) in assay [6] (100 μM Gpp-NHp, mean n=3) is 61 nM; in assay [6] (100 μM Gpp-NHp, single experiments) it was 57 nM and 72 nM and 54 nM; in assay [6] (No Gpp-NHp, mean n=3) it was 24 nM; in assay [6] (No Gpp-NHp, single experiments) it was 23 nM and 25 nM; in assay [7] (100 μM Gpp-NHp) it was 16 nM; in assay [7] (No Gpp-NHp), 26 nM.

Values taken from US20030157516A1, “G protein coupled receptor” (priority 2000, published 2003).
